Experimental data: patent US9695155B2, “Herbicidal substituted pyrimidinyloxy benzene compounds” (E. I. DU PONT DE NEMOURS AND COMPANY, priority 2013, dated 2017)

What was measured:
[1] = tested on: barnyardgrass; test: Test C flooded paddy test; type: in vivo, Echinochloa crus-galli; conditions: Flood, scale 0 to 100 (0 no effect, 100 complete control), 13 to 15 days
How it was run: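 Compound was added to standing water 3 cm above soil, flood maintained, and plants held in a greenhouse before visual scoring against controls at 13 to 15 days.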

[2] = tested on: arrowleaf sida; test: Test E postemergence; type: in vivo, Sida rhombifolia
Excerpt: (§1) Seeds of plant species selected from corn (Zea mays), soybean (Glycine max), velvetleaf (Abutilon theophrasti), lambsquarters (Chenopodium album), wild poinsettia (Euphorbia heterophylla), palmer pigweed (Amaranthus palmeri), waterhemp (common waterhemp, Amaranthus rudis), surinam grass (Brachiaria decumbens), large (Lg) crabgrass (Digitaria sanguinalis), Brazilian crabgrass (Digitaria horizontalis), fall panicum (Panicum dichotomiflorum), giant foxtail (Setaria faberii), green foxtail (Setaria viridis), goosegrass (Eleusine indica), johnsongrass (Sorghum halepense), ragweed (common ragweed, Ambrosia elatior), barnyardgrass (Echinochloa crus-galli), sandbur (southern sandbur, Cenchrus echinatus), arrowleaf sida (Sida rhombifolia), Italian ryegrass (Lolium multiflorum), dayflower (Virginia (VA) dayflower, Commelina virginica), field bindweed (Convolvulus arvensis), morningglory (Ipomoea coccinea), nightshade (eastern black nightshade, Solanum ptycanthum), kochia (Kochia scoparia), yellow nutsedge (Cyperus esculentus), cocklebur (common cocklebur, Xanthium strumarium), smartweed (ladysthumb smartweed, and hairy beggarticks (Bidens pilosa), were planted into a silt loam soil and treated preemergence with test chemicals formulated in a non-phytotoxic solvent mixture which included a surfactant.
(§2) At the same time, plants from these crop and weed species and also horseweed (Canada horseweed, Conyza canadensis), waterhemp_RES1, (ALS & Triazine resistant common waterhemp, Amaranthus rudis), and waterhemp_RES2, (ALS & HPPD resistant common waterhemp, Amaranthus rudis) were planted in pots containing Redi-Earth® planting medium (Scotts Company, 14111 Scottslawn Road, Marysville, Ohio 43041) comprising spaghnum peat moss, vermiculite, wetting agent and starter nutrients were treated with postemergence applications of test chemicals formulated in the same manner. Plants ranged in height from 2 to 18 cm for postemergence treatments (1- to 4-leaf stage). Treated plants and controls were maintained in a greenhouse for 14 to 21 days, after which time all species were compared to controls and visually evaluated. Plant response ratings, summarized in Table E, are based on a scale of 0 to 100 where 0 is no effect and 100 is complete control. A dash (-) response means no test result.

[3] = tested on: Brazilian crabgrass; test: Test E postemergence; type: in vivo, Digitaria horizontalis
How it was run: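 Response was scored visually on a 0-100 scale (100 = complete control) versus controls after 14 to 21 days in the greenhouse. Test chemicals, formulated with surfactant in a non-phytotoxic solvent mixture, had been applied preemergence to seeds in silt loam soil or postemergence to 1- to 4-leaf plants in potting medium.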

[4] = tested on: corn; test: Test E postemergence; type: in vivo, Zea mays
Excerpt: as §1, §2

[5] = tested on: palmer pigweed; test: Test E postemergence; type: in vivo, Amaranthus palmeri
Excerpt: as §1, §2

[6] = tested on: Italian ryegrass; test: Test E postemergence; type: in vivo, Lolium multiflorum
Excerpt: as §1, §2

[7] = tested on: hairy beggarticks; test: Test E postemergence; type: in vivo, Bidens pilosa
Excerpt: as §1, §2

[8] = Postemergence, 31 g ai/ha, scale 0 to 100
[9] = Postemergence, 62 g ai/ha, scale 0 to 100
[10] = Postemergence, 125 g ai/ha, scale 0 to 100
[11] = postemergence, 8 g ai/ha, scale 0 to 100, 0 no effect, 100 complete control
[12] = postemergence, 16 g ai/ha, scale 0 to 100, 0 no effect, 100 complete control

## FC(F)(F)c1cnn(-c2c(Br)cccc2Oc2ncc(Cl)cn2)c1 [Compound 191]
[1]; 31 g ai/ha
  Plant response rating, Barnyardgrass: 0
[1]; 62 g ai/ha
  Plant response rating, Barnyardgrass: 0
[1]; 125 g ai/ha
  Plant response rating, Barnyardgrass: 0
[1]; 250 g ai/ha
  Plant response rating, Barnyardgrass: 20
[2]; [8]
  Plant response rating, Arrowleaf Sida: 70
[2]; [9]
  Plant response rating, Arrowleaf Sida: 70
[2]; [10]
  Plant response rating, Arrowleaf Sida: 100
[2]; [11]
  Plant response rating, Arrowleaf Sida: 50
[2]; [12]
  Plant response rating, Arrowleaf Sida: 60
[3]; [8]
  Plant response rating, Crabgrass, Brazil: 10
[3]; [9]
  Plant response rating, Crabgrass, Brazil: 10
[3]; [10]
  Plant response rating, Crabgrass, Brazil: 20
[3]; [11]
  Plant response rating, Crabgrass, Brazil: 10
[3]; [12]
  Plant response rating, Crabgrass, Brazil: 10
[4]; [8]
  Plant response rating, Corn: 10
[4]; [9]
  Plant response rating, Corn: 10
[4]; [10]
  Plant response rating, Corn: 15
[4]; [11]
  Plant response rating, Corn: 0
[4]; [12]
  Plant response rating, Corn: 0
[5]; [8]
  Plant response rating, Pigweed, Palmer: 75
[5]; [9]
  Plant response rating, Pigweed, Palmer: 75
[5]; [10]
  Plant response rating, Pigweed, Palmer: 85
[5]; [11]
  Plant response rating, Pigweed, Palmer: 20
[5]; [12]
  Plant response rating, Pigweed, Palmer: 40
[6]; [8]
  Plant response rating, Ryegrass, Italian: 0
[6]; [9]
  Plant response rating, Ryegrass, Italian: 0
[6]; [10]
  Plant response rating, Ryegrass, Italian: 0
[6]; [11]
  Plant response rating, Ryegrass, Italian: 0
[6]; [12]
  Plant response rating, Ryegrass, Italian: 0
[7]; [8]
  Plant response rating, Beggarticks: 40
[7]; [9]
  Plant response rating, Beggarticks: 50
[7]; [10]
  Plant response rating, Beggarticks: 50
[7]; [11]
  Plant response rating, Beggarticks: 10
[7]; [12]
  Plant response rating, Beggarticks: 20

## Clc1cnc(Oc2ccccc2-n2cc(Br)nn2)nc1 [Compound 223]
[2]; [8]
  Plant response rating, Arrowleaf Sida: 70
[2]; [9]
  Plant response rating, Arrowleaf Sida: 80
[2]; [10]
  Plant response rating, Arrowleaf Sida: 90
[2]; [11]
  Plant response rating, Arrowleaf Sida: 50
[2]; [12]
  Plant response rating, Arrowleaf Sida: 60
[3]; [8]
  Plant response rating, Crabgrass, Brazil: 10
[3]; [9]
  Plant response rating, Crabgrass, Brazil: 10
[3]; [10]
  Plant response rating, Crabgrass, Brazil: 20
[3]; [11]
  Plant response rating, Crabgrass, Brazil: 0
[3]; [12]
  Plant response rating, Crabgrass, Brazil: 0
[4]; [8]
  Plant response rating, Corn: 0
[4]; [9]
  Plant response rating, Corn: 0
[4]; [10]
  Plant response rating, Corn: 5
[4]; [11]
  Plant response rating, Corn: 0
[4]; [12]
  Plant response rating, Corn: 0
[5]; [8]
  Plant response rating, Pigweed, Palmer: 50
[5]; [9]
  Plant response rating, Pigweed, Palmer: 60
[5]; [10]
  Plant response rating, Pigweed, Palmer: 85
[5]; [11]
  Plant response rating, Pigweed, Palmer: 15
[5]; [12]
  Plant response rating, Pigweed, Palmer: 25
[6]; [8]
  Plant response rating, Ryegrass, Italian: 0
[6]; [9]
  Plant response rating, Ryegrass, Italian: 0
[6]; [10]
  Plant response rating, Ryegrass, Italian: 0
[6]; [11]
  Plant response rating, Ryegrass, Italian: 0
[6]; [12]
  Plant response rating, Ryegrass, Italian: 0
[7]; [8]
  Plant response rating, Beggarticks: 60
[7]; [9]
  Plant response rating, Beggarticks: 75
[7]; [10]
  Plant response rating, Beggarticks: 85
[7]; [11]
  Plant response rating, Beggarticks: 40
[7]; [12]
  Plant response rating, Beggarticks: 50

## N#Cc1cccc(Oc2ncc(Cl)cn2)c1-n1cc(OCC(F)(F)F)cn1 [Compound 274, 3-[(5-chloro-2-pyrimidinyl)oxy]-2-[4-(2,2,2-trifluoroethoxy)-1H-pyrazol-1-yl]benzonitrile]
[2]; Sida rhombifolia, post-emergence, Postemergence, 31 g ai/ha, scale 0 to 100, read-out: Plant response rating, Arrowleaf Sida
  pest or weed control at 31 g/ha: 60%
[2]; Sida rhombifolia, post-emergence, Postemergence, 62 g ai/ha, scale 0 to 100, read-out: Plant response rating, Arrowleaf Sida
  pest or weed control at 62 g/ha: 75%
[2]; Sida rhombifolia, post-emergence, Postemergence, 125 g ai/ha, scale 0 to 100, read-out: Plant response rating, Arrowleaf Sida
  pest or weed control at 125 g/ha: 85%
[2]; Sida rhombifolia, post-emergence, postemergence, 8 g ai/ha, scale 0 to 100, 0 no effect, 100 complete control, read-out: Plant response rating, Arrowleaf Sida
  pest or weed control at 8 g/ha: 55%
[2]; Sida rhombifolia, post-emergence, postemergence, 16 g ai/ha, scale 0 to 100, 0 no effect, 100 complete control, read-out: Plant response rating, Arrowleaf Sida
  pest or weed control at 16 g/ha: 75%
[3]; Digitaria horizontalis, post-emergence, Postemergence, 31 g ai/ha, scale 0 to 100, read-out: Plant response rating, Crabgrass, Brazil
  pest or weed control at 31 g/ha: 25%
[3]; Digitaria horizontalis, post-emergence, Postemergence, 62 g ai/ha, scale 0 to 100, read-out: Plant response rating, Crabgrass, Brazil
  pest or weed control at 62 g/ha: 35%
[3]; Digitaria horizontalis, post-emergence, Postemergence, 125 g ai/ha, scale 0 to 100, read-out: Plant response rating, Crabgrass, Brazil
  pest or weed control at 125 g/ha: 50%
[3]; Digitaria horizontalis, post-emergence, postemergence, 8 g ai/ha, scale 0 to 100, 0 no effect, 100 complete control, read-out: Plant response rating, Crabgrass, Brazil
  pest or weed control at 8 g/ha: 10%
[3]; Digitaria horizontalis, post-emergence, postemergence, 16 g ai/ha, scale 0 to 100, 0 no effect, 100 complete control, read-out: Plant response rating, Crabgrass, Brazil
  pest or weed control at 16 g/ha: 20%
[4]; Zea mays, post-emergence, Postemergence, 31 g ai/ha, scale 0 to 100
  corn plant response (injury) rating, 0-100 at 31 g/ha: 10%
[4]; Zea mays, post-emergence, Postemergence, 62 g ai/ha, scale 0 to 100
  corn plant response (injury) rating, 0-100 at 62 g/ha: 10%
[4]; Zea mays, post-emergence, Postemergence, 125 g ai/ha, scale 0 to 100
  corn plant response (injury) rating, 0-100 at 125 g/ha: 15%
[4]; Zea mays, post-emergence, postemergence, 8 g ai/ha, scale 0 to 100, 0 no effect, 100 complete control
  corn plant response (injury) rating, 0-100 at 8 g/ha: 10%
[4]; Zea mays, post-emergence, postemergence, 16 g ai/ha, scale 0 to 100, 0 no effect, 100 complete control
  corn plant response (injury) rating, 0-100 at 16 g/ha: 15%
[5]; post-emergence, Postemergence, 31 g ai/ha, scale 0 to 100, read-out: Plant response rating, Pigweed, Palmer
  pest or weed control at 31 g/ha: 85%
[5]; post-emergence, Postemergence, 62 g ai/ha, scale 0 to 100, read-out: Plant response rating, Pigweed, Palmer
  pest or weed control at 62 g/ha: 95%
[5]; post-emergence, Postemergence, 125 g ai/ha, scale 0 to 100, read-out: Plant response rating, Pigweed, Palmer
  pest or weed control at 125 g/ha: 100%
[5]; post-emergence, postemergence, 8 g ai/ha, scale 0 to 100, 0 no effect, 100 complete control, read-out: Plant response rating, Pigweed, Palmer
  pest or weed control at 8 g/ha: 70%
[5]; post-emergence, postemergence, 16 g ai/ha, scale 0 to 100, 0 no effect, 100 complete control, read-out: Plant response rating, Pigweed, Palmer
  pest or weed control at 16 g/ha: 65%
[6]; Lolium multiflorum, post-emergence, Postemergence, 31 g ai/ha, scale 0 to 100, read-out: Plant response rating, Ryegrass, Italian
  pest or weed control at 31 g/ha: 10%
[6]; Lolium multiflorum, post-emergence, Postemergence, 62 g ai/ha, scale 0 to 100, read-out: Plant response rating, Ryegrass, Italian
  pest or weed control at 62 g/ha: 10%
[6]; Lolium multiflorum, post-emergence, Postemergence, 125 g ai/ha, scale 0 to 100, read-out: Plant response rating, Ryegrass, Italian
  pest or weed control at 125 g/ha: 40%
[6]; Lolium multiflorum, post-emergence, postemergence, 8 g ai/ha, scale 0 to 100, 0 no effect, 100 complete control, read-out: Plant response rating, Ryegrass, Italian
  pest or weed control at 8 g/ha: 0%
[6]; Lolium multiflorum, post-emergence, postemergence, 16 g ai/ha, scale 0 to 100, 0 no effect, 100 complete control, read-out: Plant response rating, Ryegrass, Italian
  pest or weed control at 16 g/ha: 5%
[7]; Bidens pilosa, post-emergence, Postemergence, 31 g ai/ha, scale 0 to 100, read-out: Plant response rating, Beggarticks
  pest or weed control at 31 g/ha: 60%
[7]; Bidens pilosa, post-emergence, Postemergence, 62 g ai/ha, scale 0 to 100, read-out: Plant response rating, Beggarticks
  pest or weed control at 62 g/ha: 70%
[7]; Bidens pilosa, post-emergence, Postemergence, 125 g ai/ha, scale 0 to 100, read-out: Plant response rating, Beggarticks
  pest or weed control at 125 g/ha: 95%
[7]; Bidens pilosa, post-emergence, postemergence, 8 g ai/ha, scale 0 to 100, 0 no effect, 100 complete control, read-out: Plant response rating, Beggarticks
  pest or weed control at 8 g/ha: 30%
[7]; Bidens pilosa, post-emergence, postemergence, 16 g ai/ha, scale 0 to 100, 0 no effect, 100 complete control, read-out: Plant response rating, Beggarticks
  pest or weed control at 16 g/ha: 50%
